Tests used:
[1] = system: TNFalpha release in human whole blood stimulated with LPS; experiment: Inhibition of LPS induced TNFalpha release in human whole blood; type: cell-based; conditions: 1 microg/mL LPS, 4 hours, reported as range bins, read-out: Inhibition of LPS induced TNFalpha release in human whole blood pIC30 (-log IC30)
Procedure: Method for Measuring the Inhibition of TNFalpha Release in Human Whole Blood Stimulated with LPS:
Assay was performed with some modifications of the method described by Hatzelmann and Schudt (Hatzelmann and Schudt (2001) JPET 297: 267-279) and the protocol “drawing of venous blood from healthy volunteers for in vitro studies” was approved by the ethics committee of the Landesärztekammer Baden Württemberg in Stuttgart.
Heparinised venous blood was equilibrated to assay conditions for 1 hour at room temperature upon blood drawing. Immediately thereafter, 200 microL whole blood per sample were pre-incubated with 25 microL of a serial dilution of test compound or piclamilast as positive control for 30 min. at 37° C. After pre-incubation blood samples were stimulated by the addition of 25 microL lipopolysaccharide (LPS) (Sigma, Aldrich) per sample resulting in a final concentration of 1 microg/mL LPS and a final volume of 250 microL. Cells were incubated for 4 hours at 37° C. TNFalpha levels were determined from plasma that was obtained by a centrifugation step and transferring the supernatant to a new 96-well plate which was again centrifuged and clear plasma supernatant was used for the measurement of TNFalpha via alphaLISA Technology according to manufacture protocol (Perkin Elmer).
Whole blood samples that were not stimulated with LPS were used as control and set for 100% inhibition. Whole blood samples that were stimulated with LPS and solvent instead of test compound were set as 0% inhibition. Percent inhibition was calculated based on these controls for each sample and since most compounds achieved saturating maximal inhibition of 60% a pIC30 value was calculated with GraphPad Prism Software.
For the following compounds the inhibitory values of TNFalpha release [determined as −log IC30=pIC30] in the human whole blood assay between 4.5 and 4.9, between 5.0 and 5.9 and between 6.0 and 6.9 have been determined. The numbers of the compounds correspond to the examples numbers.
Inhibition of LPS Induced TNFalpha Release Assay in Human Whole Blood: pIC30

[2] = system: normal human lung fibroblasts (NHLF); experiment: Inhibition of the proliferation of normal human lung fibroblasts (NHLF); type: cell-based; conditions: Fibroblast, IL1β (50 pg/mL) and bFGF (10 ng/mL) for 36 h, methyl-3H thymidine incorporation, read-out: inhibition of NHLF proliferation pIC50 (-log IC50) (converted)
Procedure: Method for Determination of the Inhibition of the Proliferation of Normal Human Lung Fibroblasts (NHLF)
16,500 NHLF-cells were seeded in each well of 24-well cell culture plates and were subsequently cultivated for 3.5 days. Thereafter cell culture medium was replaced by non-serum containing medium and cells were starved for 24 h. Subsequently a serial dilution of test compound was added and cells were stimulated with IL1β (Interleukine 1 beta) (50 pg/mL) and bFGF (basic Fibroblast Growth Factor) (10 ng/mL) for 36 h. For DNA-synthesis (Desoxyribonucleic Acid-synthesis) measurement methyl-^3H thymidine was added to the cells for the last 7 h of the 36 h incubation period. Thereafter the radioactive labeled cells were processed for measurement of the incorporated radioactivity as a marker for DNA-synthesis and thus proliferation. For that purpose the cell culture supernatants were removed, adherent cells washed once with ice-cold PBS and fixed in ice-cold 10% (w/v) trichloroacetic acid (TCA) for 30 min. Thereafter TCA was discarded and the DNA of the fixed cells hydrolyzed by administering 0.2 N NaOH. The radioactivity containing NaOH was then transferred into scintillation vials, scintillation liquid added and radioactivity was counted (L56500, Beckman Counter). Test compounds were dissolved in DMSO to a stock concentration of 10 mM. After administration of the compound to the cell cultures the final DMSO concentration was 0.1%. Inhibition of proliferation by the various concentrations of test compound was calculated related to 0.1% DMSO-treated control cells.
The numbers of the compounds correspond to the examples numbers.

[3] = system: plasma TNFα after i.v. LPS; experiment: In vivo assay: LPS-induced TNFα release in mice; design: species or system C57BL/6 mice; conditions: Mus musculus; p.o. 1 h prior to i.v. LPS 100 μg/kg; plasma TNFα 1 h after LPS
Procedure: In Vivo Assay: LPS-Induced TNFα Release in Mice
Intravenously administration of lipopolysaccharide (LPS) causes a systemic inflammation characterised by release of pro-inflammatory cytokines, e.g. tumor necrosis factor alpha (TNFα). Selective EP2 agonists are administered per oral 1 h prior intravenously LPS challenge in mice. The anti-inflammatory activity of the selective EP2 agonists is assessed based on TNFα levels in blood plasma 1 h after LPS challenge.
Female C57BL/6 mice weighing 20-25 g were used. Mice were delivered 1 week prior to the experiments and had free access to water and food.
The test compound was mixed with 1.33% polyethylenglycol 400 (PEG400, Merck, Darmstadt, Germany) and subsequently suspended in 2% methocel solution (hypromellose, Sigma, Steinheim, Germany) using the Covaris S2X System (K Biosciences Ltd.; Hoddesdon; United Kingdom). The aimed doses were prepared by dilution series from the stock suspension, which was prepared for the administration of the highest dose in each experiment.
The administered volume of the compound suspension is 10 mL/kg. On day of the experiment the mouse body weights were documented to calculate the volume to be administered. LPS challenged control animals received drug-free vehicle solution as placebo. Test compounds and vehicle were administered by oral gavage 1 h prior to LPS challenge.
LPS (from Escherichia coli 055:B5, Sigma, Steinheim, Germany) was solubilised in 0.9% sterile NaCl solution (B. Braun Melsungen AG, Melsungen, Germany) containing 0.1% hydroxylamine (Sigma, Steinheim, Germany). LPS is intravenously (i.v.) injected at a dose of 100 μg/kg (5 mL/kg b.w.) 1 h after compound or vehicle administration.
One hour after LPS-challenge, the animals were sacrificed by inhalative isoflurane anaesthesia and heparinised blood was obtained by retroorbital bleeding. Blood was centrifuged (21,000×g, 4° C., 10 min), and plasma samples were kept frozen at −20° C. until determination of TNFα levels by ELISA. TNFα was measured with a commercially available ELISA-Kit (Quantikine® Immunoassay Mouse TNFα, R&D Systems, Minneapolis, USA).
The compound effect on TNFα release was calculated individually in percent (%) for each compound treated animal in relation to the mean TNFα level of the vehicle treated LPS-challenged control group: % effect=(Y−K)/K*100 • with defining: • Y=plasma TNFα concentration of the compound treated animal • K=mean plasma TNFα concentration of the vehicle treated group
Statistical analysis was performed on the primary TNFα concentrations by One-Way ANOVA and Dunnett's Multiple Comparison test vs. vehicle-treated control group.

Compound	IC30 [1] [nM]	IC50 [2] [nM]	ED50 [3] [mg/kg]
O=C(O)/C=C/c1cccc(NC(=O)c2cc(-c3ccccc3)cc3ccccc23)c1 [Example 1, (2E)-3-(3-{[(3-phenylnaphthalen-1-yl)carbonyl]amino}phenyl)prop-2-enoic acid]	126 to 1000	1.58 to 15.8	0.1 to 3
O=C(O)/C=C/c1ccc(F)c(NC(=O)c2cc(-c3ccccc3)cc3ccccc23)c1 [Example 2, (2E)-3-(4-fluoro-3-{[(3-phenylnaphthalen-1-yl)carbonyl]amino}phenyl)prop-2-enoic acid]	126 to 1000	1.58 to 15.8	0.1 to 3
O=C(O)/C=C/c1ccc(Cl)c(NC(=O)c2cc(-c3ccccc3)cc3ccccc23)c1 [Example 3, (2E)-3-(4-chloro-3-{[(3-phenylnaphthalen-1-yl)carbonyl]amino}phenyl)prop-2-enoic acid]	12600 to 31600		0.1 to 3
O=C(O)/C=C/c1ccc(F)c(NC(=O)c2cc(-c3ccccc3F)cc3ccccc23)c1 [Example 9, (2E)-3-{3-[({3-[2-fluorophenyl]naphthalen-1-yl}carbonyl)amino]-4fluorophenyl}prop-2-enoic acid]	126 to 1000	1.58 to 15.8	0.1 to 3
O=C(O)/C=C/c1ccc(F)c(NC(=O)c2cc(-c3cccc(F)c3)cc3ccccc23)c1 [Example 10, (2E)-3-{3-[({3-[3-fluorophenyl]naphthalen-1-yl}carbonyl)amino]-4fluorophenyl}prop-2-enoic acid]	126 to 1000	1.58 to 15.8	0.1 to 3

— patent US9309187B2, “EP2 receptor agonists” (TAKEDA GMBH, priority 2012, dated 2016)
